The subject of data set [1] is KOPT-K1 cells. The data set is classed as cell-based.
A further data set in a line: in vivo. The following applies: NSG, mouse, plasma, ip, 10 mg/kg.
Data set [2] in a line: Cytotoxicity in peripheral blood mononuclear cells. The conditions noted are these: human, peripheral blood mononuclear cells (PBMCs).
A short description of data set [3]: Cytotoxicity in CD34+ cells from healthy donors. The conditions noted are these: human, CD34+ cells from cord blood of healthy donors.
In data set [4] the test system is KOPT-K1 cells. Kind of data set: In vitro drug wash-out assay, cell growth. The following applies: 100nM for 18 hours, then drug-free media. The data set is classed as cell-based.

Structures are written as SMILES.

As to `Nc1cccc2c1CN(C1CCC(=O)NC1=O)C2=O` (centres unmarked) [lenalidomide], in the data set with KOPT-K1 cells [1] (single agent), the “effect on T-ALL survival and growth” value is on record as “no effect”.

For orientation: AUC means concentration integrated over time. Low values mean low exposure, high ones high exposure. As usually defined, the half-life is the time needed for the level to fall by half in the phase considered. Low values mean fast loss, high ones slow loss. The term CC50 denotes the concentration that lowers cell viability or growth by half. Higher therefore signals lower toxicity to the cells. In “in vivo”, `Cc1nc(Nc2ncc(C(=O)Nc3c(C)cccc3Cl)s2)cc(N2CCN(CCO)CC2)n1` [dasatinib] showed an AUC of 1400 ng·h/mL and a half-life of 55.2 min. Further, half-maximal cytotoxicity in data set [2] (CC50 at 72 h) was put at 2.81 nM. Moreover, the “effect of lenalidomide on LC50” value in the data set with KOPT-K1 cells [1] is on record as “did not alter”. For the same compound, in the data set with KOPT-K1 cells [1] (CRBN^KO vs CRBN^WT KOPT-K1, 72 hours), the “effect of CRBN deletion (CRBN^KO) on cell sensitivity” value is given as “did not alter cell sensitivity”. Besides, in data set [3], the half-maximal cytotoxic concentration (CC50) at 72 h came out at 92.9 nM. The “time post drug removal at which cells began to recover” value in the data set on KOPT-K1 cells [4] came out at 96 h.

The values are drawn from paper PMC9730446 (Science translational medicine, 2022).
